Target: unphosphorylated-BTK kinase domain (UP-BTK), GST-tagged human BTK (389-659aa) (Homo sapiens (Human), UniProt Q06187)
Assay: BTK Kinase Lanthascreen Binding Assay
Conditions: for BTK_I_binding pIC50: pIC50 = negative log of the IC50 in molar; for IC50: read-out: BTK_I_binding pIC50 (converted)
Protocol: BTK Kinase Lanthascreen Binding Assay:
A BTK kinase lanthascreen binding assay monitors compound binding to unphosphorylated-BTK kinase domain (UP-BTK), by competing with a fluorescent labeled tracer. […] Data were analyzed using Xlfit™ version 5.3 from ID Business Solutions (Guildford), Microsoft Excel add-in. pIC50 refers to the negative log of the IC50 in molar.

[1] = Lanthascreen binding, 60 minutes incubation
[2] = compound, 50 nM Tracer 236, 2 nM anti-GST antibody, 60 minutes

unphosphorylated-BTK kinase domain (UP-BTK), GST-tagged human BTK (389-659aa), sequence (Q06187 389-659): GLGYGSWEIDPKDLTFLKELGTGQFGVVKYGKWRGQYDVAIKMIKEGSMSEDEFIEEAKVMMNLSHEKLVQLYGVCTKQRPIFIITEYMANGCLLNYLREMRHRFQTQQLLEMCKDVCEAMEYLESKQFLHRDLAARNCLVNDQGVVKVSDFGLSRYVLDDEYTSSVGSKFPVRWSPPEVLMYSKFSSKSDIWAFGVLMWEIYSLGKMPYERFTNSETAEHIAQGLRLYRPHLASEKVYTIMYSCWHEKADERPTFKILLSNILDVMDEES

Compound	BTK_I_binding pIC50 [2]	further results
CCC(=O)N[C@H]1CCC[C@@H](NC(=O)c2sc3nccc4c3c2NC(=O)N4c2cnc(Oc3ccccc3)cc2C)C1 (single isomer, unassigned) [Example 385, 5-(*S)-(4-Methyl-6-phenoxypyridin-3-yl)-4-oxo-N-((1R,3S)-3-propionamidocyclohexyl)-4,5-dihydro-3H-1-thia-3,5,8-triazaacenaphthylene-2-carboxamide]		BTK_I_binding pIC50 [1]: 7.98
Cc1cc(Oc2ccccc2)ccc1N1C(=O)Nc2c(C(=O)NC3CCCC3)sc3nccc1c23 [Example 82, N-Cyclopentyl-5-(*R)-(2-methyl-4-phenoxyphenyl)-4-oxo-4,5-dihydro-3H-1-thia-3,5,8-triazaacenaphthylene-2-carboxamide]	5.35	
C=CC(=O)N[C@H]1CCCC[C@H]1NC(=O)c1sc2nccc3c2c1NC(=O)N3c1ccc(Oc2ccccc2)cn1 [Example 291, N-((1R,2S)-2-Acrylamidocyclohexyl)-4-oxo-5-(5-phenoxypyridin-2-yl)-4,5-dihydro-3H-1-thia-3,5,8-triazaacenaphthylene-2-carboxamide]		BTK_I_binding pIC50 [1]: 8.60
C=CC(=O)N[C@H]1CCC[C@@H](NC(=O)c2sc3nccc4c3c2NC(=O)N4c2ccnc(-c3ccccc3)c2)C1 [Example 283, N-((1R,3S)-3-Acrylamidocyclohexyl)-4-oxo-5-(2-phenylpyridin-4-yl)-4,5-dihydro-3H-1-thia-3,5,8-triazaacenaphthylene-2-carboxamide]		IC50: > 1000 nM
CCC(=O)N[C@@H]1CCC[C@@H]1NC(=O)c1sc2nccc3c2c1NC(=O)N3c1ccnc(-c2ccccc2)c1 [Example 159, 4-Oxo-5-(2-phenylpyridin-4-yl)-N-((1S,2R)-2-propionamidocyclopentyl)-4,5-dihydro-3H-1-thia-3,5,8-triazaacenaphthylene-2-carboxamide]		IC50: > 1000 nM
Cc1cc(Oc2ccccc2)ccc1N1C(=O)Nc2c(C(=O)N[C@H]3CCC[C@@H](N)C3)sc3nccc1c23 (single isomer, unassigned) [Example 230, N-((1S,3R)-3-Aminocyclohexyl)-5-(*S)-(2-methyl-4-phenoxyphenyl)-4-oxo-4,5-dihydro-3H-1-thia-3,5,8-triazaacenaphthylene-2-carboxamide]	7.24	
C=CC(=O)N[C@H]1CCCC[C@H]1NC(=O)c1sc2nccc3c2c1NC(=O)N3c1cnc(OC2CCCC2)cc1C [Example 223, N-((1R,2S)-2-Acrylamidocyclohexyl)-5-(6-(cyclopentyloxy)-4-methylpyridin-3-yl)-4-oxo-4,5-dihydro-3H-1-thia-3,5,8-triazaacenaphthylene-2-carboxamide]	7.81	
O=C(NC1CCCCC1)c1sc2nccc3c2c1NC(=O)N3c1ccc(Oc2ccccc2)cc1 [Example 463, N-Cyclohexyl-4-oxo-5-(4-phenoxyphenyl)-4,5-dihydro-3H-1-thia-3,5,8-triazaacenaphthylene-2-carboxamide]		BTK_I_binding pIC50 [1]: 6.22
C=CC(=O)N[C@H]1CCC[C@H]1NC(=O)c1sc2nccc3c2c1NC(=O)N3c1ccc(Oc2ccccc2)cn1 [Example 179, N-((1R,2S)-2-Acrylamidocyclopentyl)-4-oxo-5-(5-phenoxypyridin-2-yl)-4,5-dihydro-3H-1-thia-3,5,8-triazaacenaphthylene-2-carboxamide]	8.37	
C=CC(=O)N[C@H]1CCCC[C@H]1NC(=O)c1sc2nccc3c2c1NC(=O)N3c1ccc(Oc2ccccc2)cc1C (single isomer, unassigned) [Example 108, N-((1R,2S)-2-Acrylamidocyclohexyl)-5-(*S)-(2-methyl-4-phenoxyphenyl)-4-oxo-4,5-dihydro-3H-1-thia-3,5,8-triazaacenaphthylene-2-carboxamide]	7.56	
CC(=O)N[C@H]1CC[C@@H](NC(=O)c2sc3nccc4c3c2NC(=O)N4c2ccc(Oc3ccccc3)cc2C)CC1 [Example 64, N-((1S,4S)-4-Acetamidocyclohexyl)-5-(2-methyl-4-phenoxyphenyl)-4-oxo-4,5-dihydro-3H-1-thia-3,5,8-triazaacenaphthylene-2-carboxamide]	7.28	
Cc1nc(Oc2ccccc2)ccc1N1C(=O)Nc2c(C(=O)N[C@@H]3CCCC[C@H]3N)sc3nccc1c23 (single isomer, unassigned) [Example 350, N-((1R,2R)-2-Aminocyclohexyl)-5-(*S)-(2-methyl-6-phenoxypyridin-3-yl)-4-oxo-4,5-dihydro-3H-1-thia-3,5,8-triazaacenaphthylene-2-carboxamide]		IC50: > 1000 nM
C=CC(=O)N[C@H]1CCC[C@H]1NC(=O)c1sc2nccc3c2c1NC(=O)N3c1cccc(C(C)C)c1 [Example 438, N-((1R,2S)-2-Acrylamidocyclopentyl)-5-(3-isopropylphenyl)-4-oxo-4,5-dihydro-3H-1-thia-3,5,8-triazaacenaphthylene-2-carboxamide]		BTK_I_binding pIC50 [1]: 8.02
CCC(=O)N[C@H]1CCCC[C@H]1NC(=O)c1sc2nccc3c2c1NC(=O)N3c1ccc(Oc2ccccc2)cc1C [Example 35, 5-(2-Methyl-4-phenoxyphenyl)-4-oxo-N-((1R,2S)-2-propionamidocyclohexyl)-4,5-dihydro-3H-1-thia-3,5,8-triazaacenaphthylene-2-carboxamide]	6.87	
C=CC(=O)N[C@@H]1CCC[C@@H](NC(=O)c2sc3nccc4c3c2NC(=O)N4c2ccc(OC(C)C)cc2C)C1 (single isomer, unassigned) [Example 215, N-((1R,3R)-3-Acrylamidocyclohexyl)-5-(*R)-(4-isopropoxy-2-methylphenyl)-4-oxo-4,5-dihydro-3H-1-thia-3,5,8-triazaacenaphthylene-2-carboxamide]	7.13	
C=CC(=O)N[C@@H]1CC[C@@H](NC(=O)c2sc3nccc4c3c2NC(=O)N4c2ccc(Oc3ccccc3)nc2)C1 (single isomer, unassigned) [Example 334, N-((1*R,3*R)-3-Acrylamidocyclopentyl)-4-oxo-5-(6-phenoxypyridin-3-yl)-4,5-dihydro-3H-1-thia-3,5,8-triazaacenaphthylene-2-carboxamide]		BTK_I_binding pIC50 [1]: 6.81
O=C(N[C@@H]1CCC[C@H]1O)c1sc2nccc3c2c1NC(=O)N3c1cccc(-c2ccccc2)c1 [Example 144, 5-([1,1′-Biphenyl]-3-yl)-N-((1R,2R)-2-hydroxycyclopentyl)-4-oxo-4,5-dihydro-3H-1-thia-3,5,8-triazaacenaphthylene-2-carboxamide]	6.69	
Cc1cc(Oc2ccccc2)ccc1N1C(=O)Nc2c(C(=O)N[C@@H]3CCCC[C@@H]3NC(=O)CN(C)C)sc3nccc1c23 (single isomer, unassigned) [Example 132, N-((1R,2S)-2-(2-(Dimethylamino)acetamido)cyclohexyl)-5-(*S)-(2-methyl-4-phenoxyphenyl)-4-oxo-4,5-dihydro-3H-1-thia-3,5,8-triazaacenaphthylene-2-carboxamide]	7.27	
C=CC(=O)N[C@H]1CCCC[C@H]1NC(=O)c1sc2nccc3c2c1NC(=O)N3c1ccc(Oc2ccccn2)cc1C [Example 401, N-((1R,2S)-2-Acrylamidocyclohexyl)-5-(2-methyl-4-(pyridin-2-yloxy)phenyl)-4-oxo-4,5-dihydro-3H-1-thia-3,5,8-triazaacenaphthylene-2-carboxamide]		BTK_I_binding pIC50 [1]: 6.39
C=CC(=O)N[C@H]1CCC[C@H]1NC(=O)c1sc2nccc3c2c1NC(=O)N3c1ccc(Oc2cccnn2)cc1 [Example 387, N-((1R,2S)-2-Acrylamidocyclopentyl)-4-oxo-5-(4-(pyridazin-3-yloxy)phenyl)-4,5-dihydro-3H-1-thia-3,5,8-triazaacenaphthylene-2-carboxamide]		BTK_I_binding pIC50 [1]: 7.16
Cc1cc(Oc2ccccc2)ccc1N1C(=O)Nc2c(C(=O)N[C@@H]3CCC[C@@H]3N(C)C)sc3nccc1c23 [Example 17, N-((1R,2S)-2-(Dimethylamino)cyclopentyl)-5-(2-methyl-4-phenoxyphenyl)-4-oxo-4,5-dihydro-3H-1-thia-3,5,8-triazaacenaphthylene-2-carboxamide]		IC50: 120 nM
Cc1cc(Oc2ccccc2)ccc1N1C(=O)Nc2c(C(=O)N[C@H]3CCCC[C@@H]3O)sc3nccc1c23 (racemic) [Example 36, N-((1RS,2RS)-2-Hydroxycyclohexyl)-5-(2-methyl-4-phenoxyphenyl)-4-oxo-4,5-dihydro-3H-1-thia-3,5,8-triazaacenaphthylene-2-carboxamide]		IC50: 191 nM
Cc1cc(Oc2ccccc2)ccc1N1C(=O)Nc2c(C(=O)N[C@H]3CC[C@@H](O)CC3)sc3nccc1c23 (single isomer, unassigned) [Example 83, N-((1S,4S)-4-Hydroxycyclohexyl)-5-(*S)-(2-methyl-4-phenoxyphenyl)-4-oxo-4,5-dihydro-3H-1-thia-3,5,8-triazaacenaphthylene-2-carboxamide]	7.60	
CC(C)(C)OC(=O)N[C@H]1CC[C@@H](NC(=O)c2sc3nccc4c3c2NC(=O)N4c2ccc(Oc3ccccc3)cc2)CC1 [Example 163, tert-Butyl ((1S,4S)-4-(4-oxo-5-(4-phenoxyphenyl)-4,5-dihydro-3H-1-thia-3,5,8-triazaacenaphthylene-2-carboxamido)cyclohexyl)carbamate]	5.43	
C=CC(=O)N[C@H]1CCCC[C@H]1NC(=O)c1sc2nccc3c2c1NC(=O)N3c1ccc(OC(C)C)cc1C (single isomer, unassigned) [Example 174, N-((1R,2S)-2-Acrylamidocyclohexyl)-5-(*R)-(4-isopropoxy-2-methylphenyl)-4-oxo-4,5-dihydro-3H-1-thia-3,5,8-triazaacenaphthylene-2-carboxamide]	8.28	

Reference: patent publication US10934310B2, “Inhibitors of Bruton's tyrosine kinase and method of their use” (JANSSEN PHARMACEUTICA NV, priority 2015, dated 2021)
